Results from US8133886B2, “Heterobicyclic carboxamides as inhibitors for kinases” (Novartis AG, priority 2006, dated 2012).

| SMILES | melting point [°C] |
| --- | --- |
| CCOC(=O)c1cc(Oc2ccc3c(C(=O)Nc4ccc(C(C)(C)C)cc4)cccc3c2)ncn1 [Example 18] | 177 to 178 |
| CS(=O)(=O)Nc1nccc(Oc2ccc3c(C(=O)Nc4ccc(F)c(C(F)(F)F)c4)cccc3c2)n1 [Example 13, 6-(2-Methanesulfonylamino-pyrimidin-4-yloxy)-naphthalene-1-carboxylic acid (4-fluoro-3-trifluoromethyl-Phenyl)-amide] | 246 |
| O=C(Nc1ccc(Cl)c(C(F)(F)F)c1)N1COc2cc(Oc3ccnc(Cl)n3)ccc21 [Example 1, 6-(2-Chloro-pyrimidin-4-yloxy)-benzooxazole-3-carboxylic acid (4-chloro-3-trifluoromethyl-phenyl)-amide] | 140 to 142 |
| COc1ccc(-n2nc(C(C)(C)C)cc2NC(=O)c2cccc3cc(Oc4cc(NCCN(C)C)ncn4)ccc23)cc1 [Example 19, 6-[6-(2-Dimethylamino-ethylamino)-pyrimidin-4-yloxy]-naphtalene-1-carboxylic acid [5-tert-butyl-2-(4-methoxy-phenyl)-2H-pyrazol-3-yl]-amide] | 116 to 117 |
| CC(C)(C)c1ccc(NC(=O)c2cccc3cc(Oc4cc(CO)ncn4)ccc23)cc1 [Example 18A, 6-(6-Hydroxymethyl-pyrimidin-4-yloxy)-naphthalene-1-carboxylic acid (4-tert-butyl-phenyl)-amide] | 202 to 203 |
| COCc1cc(Oc2ccc3c(C(=O)Nc4ccc(C)c(C(F)(F)F)c4)cccc3c2)ncn1 [Example 18C, 6-(6-Methoxymethyl-pyrimidin-4-yloxy)-naphthalene-1-carboxylic acid (4-methyl-3-trifluoromethyl-phenyl)-amide] | 188 |
